The nature of series [1]: Compartmental plasma PK model. The series is classed as in vivo. Further details: Absorption rate constant Ka: unit not given here. To be noted: for Central compartment volume V1: 1-Oxide and Nor-oxide values fixed; for Absorption rate constant Ka: i.p. dosing compartment, SN30000 value fixed. The text has this: This model, shown schematically in Figure 9, is based on total (free + bound) plasma concentrations; the major metabolites (M14, M13, and M18) are explicit and clearance of SN30000 occurs only by reduction to M14. The i.p. bioavailability of SN30000 was modeled with an additional term for loss from the peritoneal compartment (kloss).

Series [2] in a line: Plasma protein binding by equilibrium dialysis. The series is classed as in vitro ADME. Particulars: NIH-III mouse plasma, 37°C, 6 h. How it is done: TABLE 11: Protein binding of SN30000, M14 and M18 at the indicated concentrations in NIH-III mouse plasma, measured by equilibrium dialysisa.
(µM) Percent Protein Bound (Mean ± SD)b […]
a Protein binding was evaluated by equilibrium dialysis using a high throughput plate with 12-14KDa dialysis membrane (HTDialysis, Gales Ferry, CT) as described by Banker et al., 2003, with modification. Briefly, 100 µL samples of plasma containing SN30000 or metabolites (M14 and M18) were dialysed against 100 µL PBS (pH 7.4) in an incubator (Innova-42, New Brunswick Scientific, US ) at 37°C with shaking at 80 rpm for 6 h. To achieve matrix match, 10 µL of blank plasma was added to 90 µL of the PBS sample and 90 µL of PBS was added to 10 µL of the plasma sample. Proteins were precipitated with 3 vol of ice-cold MeCN, the centrifuged supernatants were mixed with 2 vol 45 mM ammonium formate buffer pH 4.5, and 50 µL samples were analysed by HPLC with absorbance […]
bValues are mean and SD for triplicate samples.

Series [3] has as its system CHO/POR cells. Description: Redox cycling: non-respiratory O2 consumption and H2O2 generation. The class given is cell-based. Particulars: rotenone-inhibited aerobic CHO/POR cells, cumulative addition. Here is the method:
The Chinese hamster ovary cell line 51D1.3 (herein called CHO) and a stable transfectant expressing a soluble form of human P450 oxidoreductase (51D1.3/sPOR, herein called CHO/POR) ([Gu et al., 2009]), were grown in spinner flasks in αMEM plus 5% fetal bovine serum. Late log phase cultures were harvested by centrifugation, resuspended at 5 × 10^5 cells/mL in phenol red-free high-glucose DMEM (Invitrogen) supplemented with 4 mM Glutamax-1, 1 mM sodium pyruvate and 5% FBS. Stirred cell suspensions (2 mL) were transferred to an OXYBOROS O2K oxygraph for simultaneous polarographic measurement of non-respiratory O2 consumption and fluorimetric measurement of H2O2 generation as previously ([Hunter et al., 2012]). Bovine liver superoxide dismutase (10 U), horseradish peroxidase (10 U), Amplex UltraRed (50 nmol) and rotenone (1 nmol), all from Molecular Probes Invitrogen (Eugene, OR), were injected and cumulative drug additions (from saline stock solutions) were made every ∼5 min once endogenous rates had stabilized. Signals were recorded every 2 s, and flux derivatives were estimated ∼2 min after each addition using a Savitzky–Golay smoothing filter (40 data point window) in DATLAB version 4.3.
Supplementary Figure 4. Time-dependent changes in oxy gen consu mption and H2O2 formation rates induced by SN30000 in rotenone-inhibited CHO/POR cell suspensions, monitored with an OXYBOROS O2K oxygraph. Conditions of the experiment were identical to Fig. 5 except that SN30000 was added as a single bolus to separate cell suspension, rather than by cu mulative addition. A: Representative traces for oxygen consu mption and H2O2 formation rates for a single culture when SN30000 was added to a final concentration of 600 µM, at 4 min. Peak rates were established within 2 min, followed by a decline to a new steady state at approximately 1/3rd of the maximu m rate. Cell viability was > 97% by try pan […]
killing. […]

Series [4] is described as follows: Mouse toxicity: MTD, survival and body weight loss after single i.p. doses. The series is classed as in vivo, NIH-III mice. Particulars: mouse, in vivo, ip, NIH-III mice; for MTD at 14 days: both sexes, single i.p. dose. The text has this: (§1) Mouse toxicity SN30000 and metabolites M14 and M18: survival and body weight loss following single i.p. doses to NIH-III mice.
(§2) Cmpd Dose Body weight nadir Body weight nadir
(§3) (µmol/kg) Survivala Survivala
(§4) Day Weight loss (%)b Day Weight loss (%)b […]
(§5) a Survival reported as a fraction of total nu mber of animal treated at a giv en dose, with an observation time of 14 days. Deaths were predominantly due to humane ter mination because of persistent clinical signs or body weight loss > 15% of pretreatment values. b Body weig ht loss at nadir, relative to pre-treatment values. Values are mean and errors are […]
(§6) c Data from Gu et al., 2014 d Mouse died <24 hr after dosing.

Series [5] relates to NIH-III mice. The series is described as above. The series is classed as in vivo. Particulars: for Survival: 14 days.
Text: as §1, §2, §3, §4, §5, §6

In series [6] the test system is HCT116 cells. Description: Antiproliferative potency, 4 h exposure, sulforhodamine B. The class given is cell-based, human. To be noted: for IC50: Homo sapiens, HCT-116, 4 h, HCT116, 4 h exposure. Here is the method: Antiproliferative potency of SN30000 and its major metabolites following 4 h exposure of HCT116 cells under aerobic or anoxic conditions. […]
a HCT116 cells, originally from ATCC, were authenticated by short tandem repeat profiling and confir med mycoplasma-free by PCR/ELISA assay . Cells were passaged in Alpha MEM with 5% foetal bovine serum without antibiotics. In vitro cytotoxicity of SN30000 and metabolites was measured as the inhibition of cell proliferation as described previously (Gu et al., 2009). Briefly, cells were exposed to compounds for 4 h under aerobic (20% O2) or anoxic (Bactron anaerobic chamber) conditions and then grown in an aerobic 5% CO 2 incubator for 5 d before staining with sulforhodamine B. IC50 values were deter mined by interpolation (nonlinear regression to the standard Hill equation) as the drug concentration reducing staining to 50% of controls on the same plate. b Values are mean ± SEM for the numb er of independent experiments shown in parentheses.

The mark [7] stands for this setting: NIH-III, mouse, in vivo, model clearance of the compound, read-out: CL (converted).
Where [8] appears, read: aerobic (20% O2), read-out: IC50.

Where two headings read alike, the source gives them in different places. A value given as a limit tells only on which side of the number the result lay.

`c1c2c(cc3nc(CCCN4CCOCC4)nnc13)CCC2` [M13]: the “Central compartment volume V1” value in series [1] is recorded as 2.2 L/kg. Further, the clearance in series [1] (NIH-III, mouse, plasma, other: i.p. and i.v. datasets fitted simultaneously, model clearance of the compound, read-out: CL (converted)) was 1280 mL/min/kg. In series [1] (NIH-III, mouse, plasma, other: i.p. and i.v. datasets fitted simultaneously, read-out: Steady state volume VSS), the Vd was found to be 11.6 L/kg. For the same molecule, in series [1] (mouse, in vivo), the “Approximate % suppression per °C of CL” value was ~23% and the “Peripheral compartment volume V2” value came out at 9.38 L/kg.
Take `[O-][n+]1nc(CCCN2CCOCC2)nc2cc3c(cc21)CCC3` [M14]: the “Percent Protein Bound (Mean ± SD)” value in series [2] (100 µM) is 65.81 ± 0.02%. Moreover, in series [3], the “Non-respiratory O2 consumption and H2O2 generation (redox cycling)” value is “much lower rates than for SN30000”. The MTD at 14 days turned out to be 562 µmol/kg in series [4] and 177 mg/kg in series [4] (equivalent to 562 μmol/kg). This molecule gave an MTD at 2 weeks in series [4] (as stated for the temperature study (Figure 4)) of 135 mg/kg. Besides, the “Body weight nadir, Day” value in series [5] (female, 562 µmol/kg i.p.) is given as 3; in series [5] (male, 562 µmol/kg i.p.), 1; in series [5] (male, 1000 µmol/kg i.p.), 1. Moreover, the “Body weight nadir, Weight loss” value in series [5] (female, 562 µmol/kg i.p.) is given as 2.6 ± 0.4%; in series [5] (male, 562 µmol/kg i.p.), 0.7 ± 0.5%; in series [5] (male, 1000 µmol/kg i.p.), 2.0%. For the same molecule, the Survival in series [5] (female, 562 µmol/kg i.p.) is 3/3; in series [5] (female, 750 µmol/kg i.p.), 0/1; in series [5] (male, 562 µmol/kg i.p.), 3/3; in series [5] (male, 750 µmol/kg i.p.), 0/2; in series [5] (male, 1000 µmol/kg i.p.), 1/1. Besides, the “Central compartment volume V1” value in series [1] is 2.2 L/kg. Moreover, in series [1] ((1+ΔT)^-N), the “Temperature effect (N) on V1” value was determined as 0.48. Also, the “Approximate % suppression per °C of CL” value in series [1] (NIH-III, mouse, in vivo) was ~82%. For the same molecule, the “Approximate % suppression per °C of V1” value in series [1] (NIH-III, mouse, in vivo) is reported as ~28%. The “Intercompartmental clearance Clic” value in series [1] (NIH-III, mouse, in vivo) is 77.3 mL/min/kg. For the same molecule, the “Peripheral compartment volume V2” value in series [1] (NIH-III, mouse, in vivo) was found to be 3.51 L/kg. Moreover, the clearance in series [1] (setting [7]) was 1020 mL/min/kg. In series [1], the “Absorption rate constant Ka” value worked out at 4.43. The 50% inhibitory concentration (IC50) came to 600 ± 60 µM in series [6] (setting [8]) and 900 ± 100 µM in series [6] (anoxic, read-out: IC50).
Turning to `O=C(O)CCc1nc2cc3c(cc2[n+]([O-])n1)CCC3` [M18], the entries for the “Percent Protein Bound (Mean ± SD)” value in series [2] (10 µM) and in series [2] (100 µM) were 91.77 ± 0.01% and 90.32 ± 0.01%, respectively. In addition, in series [5] (female, 562 µmol/kg i.p.), the “Body weight nadir, Weight loss” value is listed as “No decrease in body weight”. Further, the Survival in series [5] (female, 562 µmol/kg i.p.) was 3/3. The “Central compartment volume V1” value in series [1] was found to be 0.43 L/kg. Also, in series [1] (setting [7]), the clearance is 3.83 mL/min/kg. Besides, the IC50 in series [6] (setting [8]) was > 1670 µM; in series [6] (anoxic, read-out: IC50), > 1670 µM. In addition, in series [6] (anoxic HCT116 cultures), the “Potency relative to SN30000 (fold less potent)” value was “at least 1000 fold”.
`[O-][n+]1nc(CCCN2CCOCC2)[n+]([O-])c2cc3c(cc21)CCC3` [SN30000, 3-(3-Morpholinopropyl)-7,8-dihydro-6H-indeno[5,6-e][1,2,4]triazine 1,4-dioxide]: the “Percent Protein Bound (Mean ± SD)” value in series [2] (10 µM) was 21.93 ± 0.17%; in series [2] (100 µM), 26.68 ± 0.04%. The “Non-respiratory O2 consumption and H2O2 generation (redox cycling)” value in series [3] was “strongly stimulated O2 consumption and H2O2 formation”. Further, the MTD at 14 days in series [4] stood at 562 µmol/kg; in series [4] (equivalent to 562 μmol/kg) it was 186 mg/kg. In series [1], the “Central compartment volume V1” value was determined as 1.95 L/kg. In addition, in series [1] ((1+ΔT)^-N), the “Temperature effect (N) on Kloss for i.p. SN30000” value is 2.80. Further, in series [1] (NIH-III, mouse, in vivo), the “Intercompartmental clearance Clic” value was 18.7 mL/min/kg. In addition, the “Peripheral compartment volume V2” value in series [1] (NIH-III, mouse, in vivo) was found to be 0.64 L/kg. Moreover, the “Approximate % suppression per °C of Kloss for i.p. SN30000” value in series [1] (NIH-III, mouse, in vivo, ip) was ~86%. Besides, the clearance in series [1] (NIH-III, mouse, in vivo, model clearance) was 189 mL/min/kg. For the same molecule, the “Absorption rate constant Ka” value in series [1] came to 60. For the same molecule, the “Kloss for i.p. SN30000” value in series [1] (loss from peritoneal compartment) was found to be 67.48 L/h. Besides, the IC50 was determined as 148 ± 20 µM in series [6] (aerobic (20% O2)) and 1.7 ± 0.4 µM in series [6] (anoxic).

Values taken from PMC5554537 (Frontiers in Pharmacology, 2017).
